Experiment: rat tail flick assay (nociceptive reaction latency)
Format: in vivo
Details: ifenprodil IN 1 mg/rat + morphine IP 6 mg/kg, given 30 min before the test, Student's t test P<0.05 vs morphine group
Experimental: In FIG. 1, results are expressed as mean±sem for 6 experiments, which are (from left to right): vehicle, morphine (6 mg/kg), vehicle, ifenprodil (1 mg/rat), vehicle IN+vehicle IP, and ifenprodil IN (1 mg/rat)+morphine IP (6 mg/kg). • vehicle: 90% saline 10% propylene glycol • vehicle and morphine were given intraperitoneally 30 min. before the test • vehicle and ifenprodil were given intranasally 30 min. before the test • n=10 rats per group • student's T test: * indicates a significant difference in comparison to the vehicle group for P<0.05 • student's T test: † indicates a significant difference in comparison to the morphine group for P<0.05

Structure (SMILES): CC(C(O)c1ccc(O)cc1)N1CCC(Cc2ccccc2)CC1 (stereo not shown) [ifenprodil]
- potentiation of morphine analgesia (nociceptive reaction latency): potentiates morphine when administered intranasally

— patent US20070043112A1, “Use of non-opiates for the potentation of opiates” (priority 2003, published 2007)
